Drawing on ChEMBL document CHEMBL1157148, “Synthesis of eudistomin D analogues and its effects on adenosine receptors” (Bioorg Med Chem, 2008), this text covers Ki for six molecules.

In test [1] the target is T1, Adenosine receptor A1 (Homo sapiens, UniProt P30542).
T1 sequence (P30542 whole entry): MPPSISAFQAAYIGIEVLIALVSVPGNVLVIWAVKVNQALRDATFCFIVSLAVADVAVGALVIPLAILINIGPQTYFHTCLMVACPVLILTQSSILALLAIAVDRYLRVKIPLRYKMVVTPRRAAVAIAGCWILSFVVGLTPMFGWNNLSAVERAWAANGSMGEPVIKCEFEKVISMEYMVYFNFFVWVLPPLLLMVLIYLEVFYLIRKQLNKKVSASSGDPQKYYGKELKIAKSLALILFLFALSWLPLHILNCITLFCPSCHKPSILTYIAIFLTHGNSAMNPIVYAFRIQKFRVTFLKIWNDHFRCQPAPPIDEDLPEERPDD
Nature of the test: Displacement of [3H]DPCPX from human recombinant adenosine A1 receptor expressed in HEK293T cells. Format: cell-based, HEK-293T. On the technique in general: Loss of bound radioactivity is the signal in a displacement assay; it reports binding, not function.

Test [2] addresses Adenosine receptor A2a (Homo sapiens, UniProt P29274). Put plainly: biochemical.
Description: Displacement of [3H]CGS21680 from human recombinant adenosine A2A receptor expressed in HEK293T cells
Test [3] has as its target T2, Adenosine receptor A3 (Homo sapiens, UniProt P0DMS8).
T2 sequence (P0DMS8 whole entry): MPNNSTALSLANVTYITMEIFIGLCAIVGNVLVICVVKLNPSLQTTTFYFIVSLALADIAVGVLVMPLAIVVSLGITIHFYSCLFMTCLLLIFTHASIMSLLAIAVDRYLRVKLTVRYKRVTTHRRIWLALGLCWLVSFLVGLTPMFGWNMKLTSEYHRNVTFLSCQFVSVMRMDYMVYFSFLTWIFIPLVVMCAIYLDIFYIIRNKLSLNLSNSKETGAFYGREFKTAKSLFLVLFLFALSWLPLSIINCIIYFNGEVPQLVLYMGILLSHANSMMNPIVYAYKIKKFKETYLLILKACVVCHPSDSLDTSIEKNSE
Nature of the test: Displacement of [3H]NECA from human recombinant adenosine A3 receptor expressed in HEK293T cells. Format: cell-based, HEK-293T.

Chain of Adenosine receptor A2a (P29274 whole entry): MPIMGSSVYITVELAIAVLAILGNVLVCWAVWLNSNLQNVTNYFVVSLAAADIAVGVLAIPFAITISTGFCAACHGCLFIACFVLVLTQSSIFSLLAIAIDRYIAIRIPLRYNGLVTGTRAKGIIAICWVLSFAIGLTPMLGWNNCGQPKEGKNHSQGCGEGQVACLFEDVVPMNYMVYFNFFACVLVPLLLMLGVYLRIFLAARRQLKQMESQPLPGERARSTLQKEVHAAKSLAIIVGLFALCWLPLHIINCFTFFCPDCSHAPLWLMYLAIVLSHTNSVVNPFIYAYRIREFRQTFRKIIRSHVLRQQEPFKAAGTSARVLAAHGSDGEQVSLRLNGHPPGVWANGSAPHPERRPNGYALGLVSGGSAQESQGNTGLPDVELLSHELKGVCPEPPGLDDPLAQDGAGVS

Regarding `Cc1cc2c(c(C)c1O)c1ccncc1n2C`, the Ki in test [1] was above 100 µM; in test [2], 80.6 µM; in test [3] it was 43.4 µM.
On to `Cc1cc2[nH]c3cccnc3c2c(C)c1O`, for which the Ki is above 100 µM in test [1], 24.9 µM in test [2] and 4.43 µM in test [3].
In the case of `Cc1cc2[nH]c3cnccc3c2c(C)c1O`, the Ki was above 100 µM in test [1], above 100 µM in test [2] and 17.7 µM in test [3].
With `Cc1cc2c(c(C)c1O)c1ncccc1n2C`, the values for the Ki in test [1], in test [2] and in test [3] were above 100 µM, 44.1 µM and 13.3 µM, respectively.
Consider `Cc1cc2c(c(C)c1O)c1cc[n+](C)cc1n2C`, for which the Ki in test [1], in test [2] and in test [3] was above 100 µM each time.
For the molecule `Cc1cc2[nH]c3c[n+](C)ccc3c2c(C)c1O`, the results for the Ki in test [1], in test [2] and in test [3] were above 100 µM, above 100 µM and 29.7 µM, respectively.

As usually defined, the Ki is a measure of affinity in units of concentration, obtained from inhibition or displacement.
